PubChem BioAssay (NCI)
Values joined by “and” are separate entries in the source; they are usually repeats but may differ in a detail not shown here. Equal values may be shown once.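 Step 1: Grow cells in 96-well plates. Step 2: Expose to compound for 48 hours at 5 concentrations. Step 3: Interpolate endpoints linearly; if unreached, use highest concentration. At the GI50, growth is halved. Definition used: TGI = concentration required for complete inhibition of growth.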 Where a SMILES comes first, the peptide text is derived from it. [ ]: non-standard residue; d: D form. The star is where a group is joined. ξ: configuration not given here. X6 = FC(F)(F)c1cc(NC(=S)*)cc(C(F)(F)F)c1; ξF = NC(Cc1ccccc1)C(=O)O

Tests used:
Experiment in all cases: DTP human tumour cell line panel, 48 h
ACHN renal = tested on: ACHN renal
CAKI-1 renal = tested on: CAKI-1 renal
HL-60(TB) leukemia = tested on: HL-60(TB) leukemia
KM12 colon = tested on: KM12 colon
M14 melanoma = tested on: M14 melanoma
NCI-H522 lung = tested on: NCI-H522 lung
OVCAR-3 ovarian = tested on: OVCAR-3 ovarian
SK-MEL-2 melanoma = tested on: SK-MEL-2 melanoma
SK-OV-3 ovarian = tested on: SK-OV-3 ovarian
SN12C renal = tested on: SN12C renal

| Compound | GI50 (ACHN renal) | TGI (ACHN renal) | GI50 (CAKI-1 renal) | TGI (CAKI-1 renal) | GI50 (HL-60(TB) leukemia) | TGI (HL-60(TB) leukemia) | GI50 (KM12 colon) | TGI (KM12 colon) | GI50 (M14 melanoma) | TGI (M14 melanoma) | GI50 (NCI-H522 lung) | TGI (NCI-H522 lung) | GI50 (OVCAR-3 ovarian) | TGI (OVCAR-3 ovarian) | TGI (SK-MEL-2 melanoma) | GI50 (SK-OV-3 ovarian) | TGI (SK-OV-3 ovarian) | GI50 (SN12C renal) | TGI (SN12C renal) | GI50 (SK-MEL-2 melanoma) |
| --- | --- | --- | --- | --- | --- | --- | --- | --- | --- | --- | --- | --- | --- | --- | --- | --- | --- | --- | --- | --- |
| COC(=O)[C@@H]1[C@H](O)[C@H](C)[C@H](O)[C@@](C)(O)/C=C\C=C(C)C(=O)Nc2c(C)c(OC(C)=O)c3c(c2O)C(=O)C(C)=C2OCOC(=C23)C(C)=C[C@@](C)(O)[C@H](O)[C@@H](C)[C@H]1OC(C)=O | > 66.9 µM | > 100 µM | > 66.9 µM | > 100 µM | 11.5 µM | > 100 µM and 64.6 µM and 39.9 µM | > 66.9 µM | > 100 µM | > 100 µM and 21 µM and 29.1 µM | > 100 µM and 66.9 µM and 86.5 µM | 17.8 µM | > 100 µM and 66.9 µM and 43.6 µM | 56.5 µM | 87.6 µM and 66.9 µM and > 100 µM | > 100 µM and 66.9 µM and 96.3 µM | > 66.9 µM | > 100 µM | 49.8 µM | > 100 µM and 66.9 µM |  |
| Nc1ccccc1SC(C[N+](=O)[O-])c1ccc2c(c1)OCO2 (centres undefined) |  | 19 µM |  | 26.6 µM |  | 4.6 µM |  | 6.31 µM |  | 3.15 µM |  | 28.3 µM |  | 12.4 µM | 27.7 µM |  | 15.9 µM |  | 14.3 µM |  |
| COC(=O)[C@@H](NC(=O)CNC(=O)[C@H]1CCCN1C(=O)C(Cc1ccccc1)NC(=S)Nc1cc(C(F)(F)F)cc(C(F)(F)F)c1)C(C)C (some centres undefined) (X6-[ξF][dP]GV-OMe) | 3.36 µM | 10.7 µM | 2.71 µM | 10.5 µM | 3.58 µM | 12.7 µM | 2.88 µM | 7.75 µM | 3.33 µM | 10.5 µM | 3.04 µM | 8.65 µM | 2.96 µM | 8.48 µM | 6.86 µM | 2.98 µM | 8.26 µM | 1.85 µM | 4.26 µM | 2.86 µM |
| C[C@]12CC[C@H](O)CC1=CC[C@@H]1C2CC[C@]2(C)C(=O)N(N)C(=O)CC12 (some centres undefined) |  | > 100 µM |  | > 100 µM |  | > 100 µM |  | > 100 µM |  | > 100 µM |  | > 100 µM |  | > 100 µM | > 100 µM |  | > 100 µM |  | > 100 µM |  |
| C=C(CN1CCN(c2ccc(Cl)cc2F)CC1)c1ccc(C(=O)Nc2ccccc2N)cc1 | 4.02 µM | > 100 µM | 2.72 µM | > 100 µM | 0.794 µM |  | 2.26 µM | > 59.7 µM | 2.03 µM |  | 2.19 µM | 5.95 µM | 2.29 µM | > 100 µM | > 100 µM |  | > 25.7 µM | 1.87 µM | > 100 µM | 6.95 µM |
| O=CC[C@H]1C(=O)C[C@@H]2CCC[C@@H]21 |  | > 100 µM |  | > 100 µM |  | > 100 µM |  | > 100 µM |  | > 100 µM |  | > 100 µM |  | > 100 µM | > 100 µM |  | > 100 µM |  | > 100 µM |  |
| COC1=CC(=O)c2nc(-c3ccncc3)[nH]c2C1=O | > 100 µM | > 100 µM | 86.6 µM | > 100 µM | > 100 µM | > 100 µM | > 100 µM | > 100 µM | > 100 µM | > 100 µM | > 100 µM | > 100 µM | > 100 µM | > 100 µM | > 100 µM | > 100 µM | > 100 µM | > 100 µM | > 100 µM | > 100 µM |
| CC(C)CCC[C@@H](C)[C@H]1CC[C@H]2[C@@H]3CC=C4C[C@@H](C(C(=O)O)C(=O)O)CC[C@]4(C)[C@H]3CC[C@]12C | 0.15 µM | 0.662 µM | 0.076 µM | 0.199 µM | 0.252 µM | 1.48 µM | 0.117 µM | 0.292 µM | 0.186 µM | 1.76 µM | 0.153 µM | 0.527 µM | 0.121 µM | 0.298 µM | 0.613 µM | 0.298 µM | 3.15 µM | 0.137 µM | 0.457 µM | 0.224 µM |
| COc1ccc2c(c1)/C(=C/c1c(C)nc3sc(C)nn13)C(=O)N2 | 6.53 µM | > 100 µM | 2.31 µM | > 100 µM | 0.663 µM |  | 0.42 µM | > 54.6 µM | 1.79 µM | > 27.9 µM | 0.574 µM | 5.93 µM | 0.959 µM | 37.9 µM | 4.63 µM | 3.62 µM | > 27.5 µM | 7.2 µM | > 100 µM | 1.29 µM |
| Cn1cc(C2=C(c3cn(C)c4ncccc34)C(=O)NC2=O)c2ccccc21 | 7.03 µM | > 25 µM | 4.79 µM | > 17.2 µM | 7.85 µM | 20.1 µM | 8.59 µM | > 25 µM | 9.74 µM | > 25 µM | 10.2 µM | > 25 µM | 9.93 µM | > 25 µM | 12.8 µM | 6.97 µM | 21.7 µM | 6.9 µM | > 25 µM | 6.31 µM |
| N#CCCN(CCC#N)c1ccc(/C=C2\N=C(c3cc([N+](=O)[O-])ccc3Cl)OC2=O)cc1 |  | > 100 µM |  | > 100 µM |  | 67.3 µM |  | 28.2 µM |  | > 100 µM |  | 27.6 µM |  | 70.7 µM | 38.1 µM |  | > 100 µM |  | 37.8 µM |  |
| O=C(/C=C/C12c3ccccc3C(c3ccccc31)C1C(=O)NC(=O)C12)c1ccncc1 (centres undefined) | 2.83 µM | 8.39 µM | 2.58 µM | 11.7 µM | 1.76 µM | 6.1 µM | 1.85 µM | 4.42 µM | 2.44 µM | 7.65 µM | 1.61 µM | 3.74 µM | 2.34 µM | 5.96 µM | 7.72 µM | 13.2 µM | 26.7 µM | 2.55 µM | 12 µM | 2.88 µM |
| COc1ccc2c(C3=C(c4cn(C)c5ccccc45)C(=O)NC3=O)cn(C)c2c1 | 0.254 µM | > 25 µM | 0.0941 µM | > 25 µM | 0.0998 µM |  | 0.111 µM | 7.24 µM | 0.0999 µM | > 25 µM | 0.0742 µM | 0.902 µM | 0.0841 µM | 1.03 µM | > 9.97 µM | 0.138 µM | > 25 µM | 0.221 µM | > 25 µM | 0.597 µM |
| COC1=CC(c2ccc[nH]2)=N/C1=C\c1[nH]c(C)c(C(=O)OC(C)C)c1C | 0.0456 µM | 1.2 µM | 0.0158 µM | 0.236 µM | 0.0551 µM | 2.89 µM | 0.0439 µM | 1.8 µM | 0.034 µM | 1.23 µM | 0.0445 µM | 0.637 µM | 0.05 µM | 0.586 µM | 0.0525 µM | 0.831 µM | 4.65 µM | 0.068 µM | 2.01 µM | 0.02 µM |
| CCC(CO)Nc1nc2ccc(Cl)cc2c2ccccc12 (centres undefined) | 9.05 µM | 21.1 µM | 2.82 µM | 14.6 µM | 7.62 µM | 63.3 µM | 5.3 µM | 17.1 µM | 12.8 µM | 25.6 µM | 8.42 µM | 21.5 µM | 12.2 µM | 24.7 µM | 28.4 µM | 11.8 µM | 24.1 µM | 11.5 µM | 25.3 µM | 14.5 µM |
| CCOC(=O)C1=C(C)NC(=S)NC1c1ccccc1 (centres undefined) |  | > 100 µM |  | > 41.2 µM |  | > 100 µM |  | > 100 µM |  | > 100 µM |  | > 100 µM |  | > 100 µM | > 100 µM |  | > 100 µM |  | > 100 µM |  |
| COC1CCC(N2C(=O)CNc3ncc(-c4ccc(C(C)(C)O)nc4)nc32)CC1 (centres undefined) | 1.07 µM and 0.205 µM | > 100 µM | 0.412 µM | > 6.75 µM | 2.88 µM and 1.09 µM | > 10 µM and 30.8 µM | 1.2 µM and 0.302 µM | > 40.8 µM | 0.614 µM and 0.134 µM | > 6.95 µM and 11.8 µM | 0.322 µM and 0.0656 µM | 2.63 µM | 0.904 µM and 0.248 µM | > 33 µM | 3.69 µM and 1.48 µM | 0.464 µM and 0.0716 µM | 3.93 µM and 0.551 µM | 0.794 µM and 0.315 µM | > 43.2 µM | 0.772 µM and 0.183 µM |
| O=C1CC(c2ccc3c(c2)OCO3)Nc2ccccc21 (centres undefined) | 7.22 µM | > 87.4 µM | 5.31 µM | 47.5 µM | 3.16 µM | > 100 µM | 5.36 µM | 20.8 µM | 14 µM | 30.5 µM | 12.9 µM | 38.8 µM | 5.01 µM | 21.3 µM | > 62.8 µM | 16.8 µM | > 100 µM | 6.28 µM | 23 µM | 12.7 µM |
| Brc1ccc(N=c2nc3ccccn3n3nc(-c4ccccc4)cc23)cc1 |  | > 100 µM |  | 59.9 µM |  | > 100 µM |  | > 100 µM |  | 33 µM |  | 88.2 µM |  | 72.1 µM | > 100 µM |  | > 100 µM |  | > 100 µM |  |
| C=C1C(=O)C23CC1CCC2C12CO[C@@H]4OCC(C)(CC[C@@H]1OC3=O)C42 (some centres undefined) |  | 9.4 µM |  | 5.33 µM |  | 19.5 µM |  | 17.3 µM |  | 2.88 µM |  | 2.33 µM |  | 16.6 µM | 16.9 µM |  | 40.1 µM |  | 21.3 µM |  |
